Experimental findings from patent US12084521B2, “TLR9 inhibitors to suppress inflammatory response to pathogens” (University Of Maryland, Baltimore, priority 2018, dated 2024) are described below.

A short description of the data set: Stability and solubility of peptide solutions.

Turning to ALRLCLEERD [Peptide 9R34-ΔN], the “concentration up to which stock solutions were stable” value is listed as “up to 10 mM”.
